Experimental data from ChEMBL document CHEMBL5465560, “Selectivity Literature for EUbOPEN Chemogenomic Library” (2024).

Columns and labels:
[1] = target: MAP kinase-interacting serine/threonine-protein kinase 2 (Homo sapiens, UniProt Q9HBH9); test: Selectivity interaction (Kinase panel (33PanQinase(R) Activity Assay)) EUB0000877a MKNK2
[2] = target: Homeodomain-interacting protein kinase 1 (Homo sapiens, UniProt Q86Z02); test: Selectivity interaction (SelectScreen profiling (Invitrogen)) EUB0000607a HIPK1; details: at 2 µM
[3] = target: Mitogen-activated protein kinase 7 (Homo sapiens) (UniProt Q13164); test: Selectivity interaction (KinomeScan (DiscoverX)) EUB0000607a MAPK7; details: at 10 µM
[4] = target: T1, Tyrosine-protein kinase BTK (Homo sapiens, UniProt Q06187); test: Selectivity interaction (ActivX KiNativ screen (kinase selectivity in THP-1 cell lysates)) EUB0000639a BTK; type: subcellular; details: lysate, at 5 µM
T1 sequence (Q06187 whole entry): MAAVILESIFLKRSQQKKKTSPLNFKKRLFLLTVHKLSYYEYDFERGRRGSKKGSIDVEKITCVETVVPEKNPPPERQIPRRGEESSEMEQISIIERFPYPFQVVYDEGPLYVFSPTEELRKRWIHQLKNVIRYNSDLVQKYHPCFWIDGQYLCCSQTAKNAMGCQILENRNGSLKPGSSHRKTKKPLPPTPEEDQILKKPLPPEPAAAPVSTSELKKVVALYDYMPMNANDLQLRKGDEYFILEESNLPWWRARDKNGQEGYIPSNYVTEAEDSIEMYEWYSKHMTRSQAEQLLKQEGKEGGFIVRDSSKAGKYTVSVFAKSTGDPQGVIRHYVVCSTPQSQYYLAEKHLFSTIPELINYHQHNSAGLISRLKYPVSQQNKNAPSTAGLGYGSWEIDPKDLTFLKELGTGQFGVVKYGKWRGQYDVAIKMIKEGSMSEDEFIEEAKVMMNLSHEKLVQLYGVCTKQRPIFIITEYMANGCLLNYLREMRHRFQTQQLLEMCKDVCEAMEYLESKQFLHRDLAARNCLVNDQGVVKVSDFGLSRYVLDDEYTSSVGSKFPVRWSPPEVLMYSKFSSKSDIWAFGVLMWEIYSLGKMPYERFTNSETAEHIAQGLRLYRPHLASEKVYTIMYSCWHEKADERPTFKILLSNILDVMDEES

[5] = target: Tyrosine-protein kinase Fyn (Homo sapiens) (UniProt P06241); test: Selectivity interaction (Kinase panel (Invitrogen)) EUB0000639a FYN; details: at 200 nM
Tyrosine-protein kinase Fyn (Homo sapiens), sequence (P06241 2-537 limits assumed): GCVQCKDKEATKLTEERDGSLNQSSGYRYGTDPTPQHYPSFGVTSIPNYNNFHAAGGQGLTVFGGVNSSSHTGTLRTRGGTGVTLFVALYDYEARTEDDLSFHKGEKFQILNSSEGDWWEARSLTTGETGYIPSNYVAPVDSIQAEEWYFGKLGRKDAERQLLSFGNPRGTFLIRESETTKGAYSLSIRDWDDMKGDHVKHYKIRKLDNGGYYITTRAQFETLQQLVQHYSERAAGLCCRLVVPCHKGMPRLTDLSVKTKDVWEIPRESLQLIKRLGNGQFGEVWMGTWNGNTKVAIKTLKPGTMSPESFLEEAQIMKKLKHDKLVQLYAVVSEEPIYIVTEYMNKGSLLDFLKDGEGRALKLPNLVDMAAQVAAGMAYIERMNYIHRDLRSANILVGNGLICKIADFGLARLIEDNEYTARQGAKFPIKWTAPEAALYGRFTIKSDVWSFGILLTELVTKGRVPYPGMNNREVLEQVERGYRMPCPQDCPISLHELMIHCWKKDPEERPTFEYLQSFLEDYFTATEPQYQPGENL

[6] = test system: Hepatocyte growth factor receptor (Homo sapiens), P08581 [M1250T]; test: (§1) Selectivity interaction (KinomeScan (DiscoverX)) EUB0000695a MET; details: at 100 nM
Hepatocyte growth factor receptor (Homo sapiens), P08581 [M1250T], sequence (P08581 whole entry M1250T): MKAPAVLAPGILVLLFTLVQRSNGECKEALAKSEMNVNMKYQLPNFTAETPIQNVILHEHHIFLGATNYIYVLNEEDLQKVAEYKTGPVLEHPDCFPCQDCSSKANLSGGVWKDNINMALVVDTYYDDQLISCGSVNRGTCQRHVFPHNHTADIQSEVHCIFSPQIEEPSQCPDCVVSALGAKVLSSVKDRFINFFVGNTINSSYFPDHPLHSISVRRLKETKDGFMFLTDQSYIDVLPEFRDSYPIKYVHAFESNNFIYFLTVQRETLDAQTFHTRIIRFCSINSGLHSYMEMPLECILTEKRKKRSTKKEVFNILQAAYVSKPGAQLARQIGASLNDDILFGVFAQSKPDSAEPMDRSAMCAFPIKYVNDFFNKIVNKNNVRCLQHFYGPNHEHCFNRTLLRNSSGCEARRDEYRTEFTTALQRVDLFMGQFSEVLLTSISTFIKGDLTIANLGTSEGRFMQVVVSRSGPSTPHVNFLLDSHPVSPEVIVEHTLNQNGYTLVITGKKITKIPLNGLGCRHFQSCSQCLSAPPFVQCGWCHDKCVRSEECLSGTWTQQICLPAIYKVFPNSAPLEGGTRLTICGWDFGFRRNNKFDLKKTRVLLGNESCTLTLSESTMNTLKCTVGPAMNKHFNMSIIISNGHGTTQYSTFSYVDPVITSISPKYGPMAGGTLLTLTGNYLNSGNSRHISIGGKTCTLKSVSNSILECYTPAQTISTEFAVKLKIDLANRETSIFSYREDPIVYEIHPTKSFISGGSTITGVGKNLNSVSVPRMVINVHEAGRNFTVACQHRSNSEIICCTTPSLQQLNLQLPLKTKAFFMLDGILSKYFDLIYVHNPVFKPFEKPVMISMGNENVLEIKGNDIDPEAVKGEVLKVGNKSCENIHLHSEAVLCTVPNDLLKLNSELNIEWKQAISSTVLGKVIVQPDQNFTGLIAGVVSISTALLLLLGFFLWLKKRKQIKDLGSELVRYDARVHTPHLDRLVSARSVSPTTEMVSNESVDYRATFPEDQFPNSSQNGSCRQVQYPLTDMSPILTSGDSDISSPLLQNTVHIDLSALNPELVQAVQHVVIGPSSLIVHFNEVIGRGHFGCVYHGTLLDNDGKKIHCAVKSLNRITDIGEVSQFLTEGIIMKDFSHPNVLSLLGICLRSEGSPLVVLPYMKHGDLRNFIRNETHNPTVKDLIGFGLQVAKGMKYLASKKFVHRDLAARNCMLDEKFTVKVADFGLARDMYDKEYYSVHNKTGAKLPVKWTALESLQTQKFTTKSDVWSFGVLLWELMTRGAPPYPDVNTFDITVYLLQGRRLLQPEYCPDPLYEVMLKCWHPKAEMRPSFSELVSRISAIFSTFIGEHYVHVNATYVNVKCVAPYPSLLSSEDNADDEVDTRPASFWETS

[7] = test system: Hepatocyte growth factor receptor (Homo sapiens), P08581 [Y1235D]; test: as §1; details: at 100 nM
[8] = target: Hepatocyte growth factor receptor (Homo sapiens, UniProt P08581); test: as §1; details: at 100 nM
Hepatocyte growth factor receptor, sequence (P08581 whole entry): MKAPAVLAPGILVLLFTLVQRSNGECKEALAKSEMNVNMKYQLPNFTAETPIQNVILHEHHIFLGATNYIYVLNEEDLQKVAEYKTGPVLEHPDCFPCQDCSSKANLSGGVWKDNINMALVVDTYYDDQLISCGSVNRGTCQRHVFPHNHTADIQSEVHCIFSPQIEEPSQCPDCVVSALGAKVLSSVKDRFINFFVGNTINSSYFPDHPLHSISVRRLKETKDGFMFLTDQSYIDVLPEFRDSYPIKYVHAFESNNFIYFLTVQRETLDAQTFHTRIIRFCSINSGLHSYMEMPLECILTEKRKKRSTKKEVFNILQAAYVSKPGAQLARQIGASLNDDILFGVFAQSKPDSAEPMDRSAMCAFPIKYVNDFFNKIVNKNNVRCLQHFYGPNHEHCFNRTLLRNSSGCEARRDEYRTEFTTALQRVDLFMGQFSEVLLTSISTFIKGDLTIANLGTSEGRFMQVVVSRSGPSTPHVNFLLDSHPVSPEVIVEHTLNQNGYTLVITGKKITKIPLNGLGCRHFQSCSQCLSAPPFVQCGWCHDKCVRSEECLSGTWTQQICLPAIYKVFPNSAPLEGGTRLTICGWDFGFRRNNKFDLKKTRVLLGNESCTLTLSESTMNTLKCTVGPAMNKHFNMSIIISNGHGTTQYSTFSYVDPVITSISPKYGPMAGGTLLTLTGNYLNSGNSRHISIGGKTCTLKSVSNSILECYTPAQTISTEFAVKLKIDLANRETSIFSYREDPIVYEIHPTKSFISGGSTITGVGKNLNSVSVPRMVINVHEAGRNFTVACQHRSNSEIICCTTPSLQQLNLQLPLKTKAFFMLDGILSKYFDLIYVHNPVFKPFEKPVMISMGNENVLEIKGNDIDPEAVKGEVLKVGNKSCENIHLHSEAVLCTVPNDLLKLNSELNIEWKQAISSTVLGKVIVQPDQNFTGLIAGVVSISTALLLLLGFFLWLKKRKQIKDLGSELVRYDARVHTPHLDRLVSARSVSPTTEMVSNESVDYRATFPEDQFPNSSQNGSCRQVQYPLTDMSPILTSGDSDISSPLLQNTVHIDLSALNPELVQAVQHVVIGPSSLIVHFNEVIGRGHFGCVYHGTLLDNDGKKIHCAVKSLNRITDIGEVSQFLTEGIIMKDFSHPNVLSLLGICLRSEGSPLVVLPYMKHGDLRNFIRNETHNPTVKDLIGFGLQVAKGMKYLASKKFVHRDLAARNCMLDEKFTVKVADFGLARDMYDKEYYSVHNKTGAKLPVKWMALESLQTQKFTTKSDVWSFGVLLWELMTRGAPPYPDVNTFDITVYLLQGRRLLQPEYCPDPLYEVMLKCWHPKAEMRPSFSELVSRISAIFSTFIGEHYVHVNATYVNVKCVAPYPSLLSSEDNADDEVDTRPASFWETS

[9] = target: T2, Mitogen-activated protein kinase 13 (Homo sapiens) (UniProt O15264); test: Selectivity interaction (Millipore kinase profiler) EUB0000124b MAPK13; details: at 10 µM
T2 sequence (whole entry): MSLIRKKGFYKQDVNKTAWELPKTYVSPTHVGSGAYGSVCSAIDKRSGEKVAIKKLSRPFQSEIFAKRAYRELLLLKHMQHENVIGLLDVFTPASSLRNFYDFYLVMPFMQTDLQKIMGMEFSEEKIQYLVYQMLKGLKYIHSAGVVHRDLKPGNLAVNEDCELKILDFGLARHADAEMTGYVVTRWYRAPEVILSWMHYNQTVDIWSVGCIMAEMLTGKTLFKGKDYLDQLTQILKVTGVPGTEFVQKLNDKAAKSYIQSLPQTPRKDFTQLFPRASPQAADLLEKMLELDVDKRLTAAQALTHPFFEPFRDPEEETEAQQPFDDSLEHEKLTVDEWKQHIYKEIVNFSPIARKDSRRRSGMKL

[10] = target: Ephrin type-A receptor 5 (Homo sapiens) (UniProt P54756); test: Selectivity interaction (Ambit KINOMEscan and KiNATiv profiling in Jurkat cells) EUB0000090b EPHA5; type: cell-based; details: at 1 µM
[11] = target: T3, Mitogen-activated protein kinase kinase kinase 3 (Homo sapiens) (UniProt Q99759); test: Selectivity interaction (KinomeScan (DiscoverX)) EUB0001079a MAP3K3; details: at 1 µM
T3 sequence (whole entry): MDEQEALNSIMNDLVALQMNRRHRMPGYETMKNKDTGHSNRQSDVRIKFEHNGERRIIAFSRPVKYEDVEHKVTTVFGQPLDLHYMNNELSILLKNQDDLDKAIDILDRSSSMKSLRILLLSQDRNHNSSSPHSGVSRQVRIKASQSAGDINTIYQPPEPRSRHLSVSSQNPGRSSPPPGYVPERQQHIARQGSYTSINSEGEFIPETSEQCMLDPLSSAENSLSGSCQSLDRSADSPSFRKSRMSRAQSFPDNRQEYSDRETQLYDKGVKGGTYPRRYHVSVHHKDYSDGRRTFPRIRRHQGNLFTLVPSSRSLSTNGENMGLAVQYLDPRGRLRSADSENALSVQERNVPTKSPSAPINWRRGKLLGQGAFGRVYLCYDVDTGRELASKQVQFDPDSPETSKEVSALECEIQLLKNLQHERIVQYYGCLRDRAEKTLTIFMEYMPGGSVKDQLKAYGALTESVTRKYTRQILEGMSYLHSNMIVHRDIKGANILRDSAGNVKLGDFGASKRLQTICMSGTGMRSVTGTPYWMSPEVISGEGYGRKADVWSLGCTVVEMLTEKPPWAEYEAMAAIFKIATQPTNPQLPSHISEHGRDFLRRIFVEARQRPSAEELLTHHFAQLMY

[12] = target: T4, Scaffold protein ILK (Homo sapiens) (UniProt Q13418); test: Selectivity interaction (Kinase panel (KiNativ target engagement assay in Jurkat cells)) EUB0001635a ILK; type: cell-based; details: Selectivity number of off-targets 0.0, Selectivity number of targets 233.0, Source Knowledge https://www.sciencedirect.com/science/article/pii/S2451945619300674?via%3Dihub, at 1 µM
T4 sequence (whole entry): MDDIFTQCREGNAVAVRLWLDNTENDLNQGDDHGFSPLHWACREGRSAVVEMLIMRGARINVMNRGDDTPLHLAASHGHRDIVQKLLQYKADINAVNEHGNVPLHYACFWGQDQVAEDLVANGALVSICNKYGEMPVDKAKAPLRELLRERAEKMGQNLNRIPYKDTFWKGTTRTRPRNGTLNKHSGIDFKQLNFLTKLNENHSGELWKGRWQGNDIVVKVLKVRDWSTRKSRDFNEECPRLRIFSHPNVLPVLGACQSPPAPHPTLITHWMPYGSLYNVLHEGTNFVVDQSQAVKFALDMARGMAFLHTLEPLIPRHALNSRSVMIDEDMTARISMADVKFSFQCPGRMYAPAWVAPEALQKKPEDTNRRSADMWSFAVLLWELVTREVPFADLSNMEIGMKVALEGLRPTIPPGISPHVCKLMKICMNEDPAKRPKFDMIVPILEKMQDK

[13] = target: T5, Dual specificity tyrosine-phosphorylation-regulated kinase 2 (Homo sapiens) (UniProt Q92630); test: Selectivity interaction (KinomeScan (DiscoverX)) EUB0000092b DYRK2; details: at 10 µM
T5 sequence (whole entry): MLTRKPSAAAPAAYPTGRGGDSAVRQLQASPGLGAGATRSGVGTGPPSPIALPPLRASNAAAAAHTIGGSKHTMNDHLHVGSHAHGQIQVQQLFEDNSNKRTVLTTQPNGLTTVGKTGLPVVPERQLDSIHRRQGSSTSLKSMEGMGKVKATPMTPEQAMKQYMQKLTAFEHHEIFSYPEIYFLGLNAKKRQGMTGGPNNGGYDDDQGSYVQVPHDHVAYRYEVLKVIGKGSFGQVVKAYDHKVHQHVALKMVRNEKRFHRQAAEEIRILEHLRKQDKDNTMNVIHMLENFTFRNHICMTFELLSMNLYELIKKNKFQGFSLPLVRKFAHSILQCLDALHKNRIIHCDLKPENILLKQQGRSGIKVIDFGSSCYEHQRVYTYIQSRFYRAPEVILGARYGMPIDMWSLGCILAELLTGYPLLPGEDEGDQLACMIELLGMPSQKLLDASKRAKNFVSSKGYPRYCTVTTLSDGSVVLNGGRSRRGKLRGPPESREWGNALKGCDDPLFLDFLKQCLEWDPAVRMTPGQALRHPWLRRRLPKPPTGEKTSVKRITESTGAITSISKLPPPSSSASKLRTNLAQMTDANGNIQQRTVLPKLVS

[14] = target: T1, Tyrosine-protein kinase BTK; test: Selectivity interaction (ActivX KiNativ screen (ex vivo kinase selectivity in human PBMCs)) EUB0001619a BTK; type: cell-based; details: PBMC, at 1 µM

MAP kinase-interacting serine/threonine-protein kinase 2, sequence (Q9HBH9 whole entry): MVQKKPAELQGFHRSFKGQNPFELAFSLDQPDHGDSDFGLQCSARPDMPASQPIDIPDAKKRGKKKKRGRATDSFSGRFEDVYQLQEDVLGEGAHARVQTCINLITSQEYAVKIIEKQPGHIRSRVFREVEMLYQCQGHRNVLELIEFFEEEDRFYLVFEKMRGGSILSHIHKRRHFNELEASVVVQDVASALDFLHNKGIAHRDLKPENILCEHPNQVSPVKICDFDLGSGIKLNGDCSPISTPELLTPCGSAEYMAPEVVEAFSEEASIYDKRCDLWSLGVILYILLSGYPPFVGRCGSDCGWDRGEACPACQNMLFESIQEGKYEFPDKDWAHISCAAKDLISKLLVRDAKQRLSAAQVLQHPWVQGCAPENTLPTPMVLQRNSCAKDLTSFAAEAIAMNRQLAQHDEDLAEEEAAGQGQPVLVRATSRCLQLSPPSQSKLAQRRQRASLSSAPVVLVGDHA

Structure (SMILES): CCC(=O)N1CC[C@H](Nc2ncnc3c2CN(c2cnc(OC)c(C(F)(F)F)c2)CC3)C1 [LENIOLISIB]
- IC50 [1]: > 10 µM

Structure (SMILES): CNC(=O)Nc1ccc(-c2nc(N3CC4CCC(C3)O4)c3cnn(C4CCC5(CC4)OCCO5)c3n2)cc1
- % of inhibition [2]: 1%
- % of control [3]: 100%

Structure (SMILES): CC[C@@H]1[C@H](F)C(=O)N[C@@H]1COc1nccc2cc(C(N)=O)c(OC)cc12 [ZIMLOVISERTIB]
- % of inhibition [4]: -7%
- % of inhibition [5]: 16.4%

Structure (SMILES): Cc1cc(F)c(C(=O)Nc2cccc(-c3nncn3C(C)C)n2)cc1-n1cnc(C2CC2)c1
- % of control [6]: 100%
- % of control [7]: 100%
- % of control [8]: 97%

Structure (SMILES): CC(=O)Nc1cccc(-n2c(=O)n(C3CC3)c(=O)c3c(Nc4ccc(I)cc4F)n(C)c(=O)c(C)c32)c1
- % of control [9]: 109%

Structure (SMILES): CN(C)C/C=C/C(=O)Nc1ccc(C(=O)N2CCCC(Nc3ncc(Cl)c(-c4c[nH]c5ccccc45)n3)C2)cc1 (centres undefined)
- % of control [10]: 89%

Structure (SMILES): Nc1cnc(N2CCc3cc(S(=O)(=O)Nc4c(F)cc(Cl)cc4F)cc(N4CCCC4=O)c32)nc1 [TP-020n]
- % of control [11]: 97%

Structure (SMILES): C=CC(=O)Nc1ccc(C(=O)Nc2[nH]nc3c2CN(C(=O)N[C@H](CN(C)C)c2ccccc2)C3(C)C)cc1
- % of engagement [12]: -20.3%

Structure (SMILES): CCC(=O)N1CCN(c2ccc(-n3c(=O)ccc4cnc5ccc(-c6cnc7ccccc7c6)cc5c43)cc2C(F)(F)F)CC1
- % of control [13]: 86%

Structure (SMILES): N#Cc1cccc(-c2c[nH]c3ncnc(N4CCOCC4)c23)c1
- % of inhibition [14]: 10%
